The values that follow come from PMC7178524, “Comparative Pharmacokinetic Profiles of Puerarin in Rat Plasma by UHPLC-MS/MS after Oral Administration of Pueraria lobata Extract and Pure Puerarin” (Journal of Analytical Methods in Chemistry, 2020).

Structures are written as SMILES.

Broadly, the AUC(0-inf) is the area under the concentration-time curve extrapolated to infinity. Lower therefore signals low exposure. For orientation: AUC(0-t) means exposure summed from dosing to a finite time, without extrapolation to infinity. Usually Tmax stands for the time at which the peak concentration occurs. In general, half-life refers to the time in which the quantity being followed falls by half. High values mean slow loss, low ones fast loss.

One data set relates to MRP2. As to conditions: after added probenecid (MRP2 inhibitor); ref "Studies have found", no number given; cited from earlier work.
The nature of data set [1]: Stability of PUR in rat plasma (QC samples, four storage conditions). Type of data set: in vitro ADME. The settings on record: for Stability (RE, %) Postextraction: extracted rat plasma sample, auto sampler 4°C for 24 h; for Stability (RE, %) Postextraction / Stability (RE, %) 23°C–28°C/24 h / Stability (RE, %) −20°C/30 day / Stability (RE, %) Freeze-thaw (3 cycles): n = 3; for Stability (RE, %) 23°C–28°C/24 h / Stability (RE, %) −20°C/30 day / Stability (RE, %) Freeze-thaw (3 cycles): rat plasma; for Stability (RE, %) Freeze-thaw (3 cycles): −20°C to 25°C. The procedure:
The stock solutions of PUR at a concentration of 200 μg/mL were prepared with methanol. A series of working solutions (4000, 1000, 400, 200, 100, and 40 ng/mL) were then prepared by diluting the stock solution with methanol. A 100 μg/mL IS stock solution was also prepared with methanol. A working solution of IS was prepared at a concentration of 100 ng/mL by diluting the stock solution with methanol. A standard calibration curve was prepared by adding 20 μL of the abovementioned PUR working solution and 20 μL of the IS working solution to 100 μL of blank plasma. The final plasma concentrations of PUR were in the concentration ranges of 800, 200, 80, 40, 20, and 8 ng/mL. QC samples of low, medium, and high concentrations (8, 80, and 720 ng/mL) of PUR were also prepared following the same procedure as described above. All solutions were kept at 4°C until use.
The stability of the PUR in rat plasma was investigated by analyzing QC samples under four different storage conditions, including three freeze-thaw cycles, room temperature 23−28°C for 24 h, −20°C for 30 days, and postextraction stability after the extracted samples being stored in the auto sampler at the temperature 4°C for 24 h. If the accuracy deviation was within ± 15%, the PUR was considered stable.

The next data set has as its system P-gp. As to conditions: after added verapamil (P-gp inhibitor); ref "Studies have found", no number given; cited from earlier work.
The nature of data set [2]: Pharmacokinetics of PUR in rat plasma after single oral administration, UHPLC-MS/MS. The class given is in vivo, male Wistar rats. On the procedure: Male Wistar rats (250−270 g) were purchased from the SPF (Beijing) Biotechnology Co., Ltd. (Beijing, China). The rats were then housed in an animal room to adapt to the environment for a week at standard temperature (23−28°C), humidity (50−65%), free diet, and tap water. Rats were fasted for 12 h before pharmacokinetic experiments and allowed free access to water and sugar during sample collection. Both PUR and PLE were dispersed in a 0.5% carboxymethyl cellulose solution and then sonicated to obtain a homogeneous suspension. A whole blood sample was collected from the infraorbital vein and immediately centrifuged at 3,500 rpm for 10 minutes at 4°C to obtain plasma. Plasma was stored at −20°C for later analysis. The experimental protocol was approved by the Animal Experiment Ethics Review Committee of Jiangsu Vocational College of Medicine.
Chromatographic separation was performed using a Waters Acquity UHPLC system with an Acquity HSS T3 column (1.8 μm, 2.1 × 50 mm, Waters, Milford, MA). Mobile phase A consists of 0.1% aqueous formic acid solution, and mobile phase B consists of 0.1% formic acid acetonitrile. The gradient elution was as follows: 0 to 0.5 min, a linear gradient from 10 to 15% B; 0.5 to 2 min, 15 to 40% B; 2 to 4 min, 40 to 80% B; 4.1 to 5 min, 80 to 99% B; 5.1 to 7 min, a linear gradient back to 10% B. The flow rate was 0.3 mL/min. The column temperature was maintained at 40 °C, and the sample storage compartment was maintained at 4°C. Under these conditions, PUR and berberine hydrochloride were eluted at 2.0 and 3.2 minutes, respectively.
Mass spectrometric detection was performed on a Waters TQD tandem mass spectrometer equipped with an electrospray ionization (ESI) source. The mass spectrometer was operated in multiple reaction monitoring (MRM) positive-ion mode and was quantified using the following transitions: m/z 417.1 > 297.0 for PUR and m/z 336.0 > 320.0 for berberine hydrochloride, and the mass fragment spectrum of PUR and berberine hydrochloride is shown in Figure 2. For all transitions, the cone voltage of 35 V and a collision energy of 30 eV for both PUR and berberine hydrochloride were used, as shown in Table 1. The capillary voltage was set at 2.8 kV, and the source temperature was maintained at 500°C with a gas flow rate of 850 L/h. Argon is used as the collision gas. The cone gas flow was set at 50 L/h. Data acquisition were performed with MassLynx^TM software version 4.1, and quantitation was performed using TargetLynx^TM (Waters, Milford, MA, USA).
Rat plasma sample (100 μL) and IS solution (20 μL, 100 ng/mL) were added to a 1.5 mL Eppendorf tube and vortex-mixed for 30 s, followed by adding 500 μL of acetonitrile to precipitate protein. The mixture was then vortex-mixed for 2 min and centrifuged at 10,000 rpm for 10 min. The supernatant was evaporated to dryness under a stream of nitrogen gas. The obtained residue was reconstituted with methanol-water (80 : 20, v/v), then vortex-mixed for 3min and centrifuged at 13,000 rpm for 10 min. Finally, a 2 μL sample of the supernatant was injected into the UHPLC-MS/MS system for analysis.
The validated method was applied to determine the plasma concentration of PUR in rats after single oral administration of PLE at a dose of 763 mg/kg (equivalent to 100.0 mg/kg of PUR, 1 mL/100g BW) or administration of PUR at a dose of 100 mg/kg (1 mL/100g BW). Twelve male Wistar rats were randomly divided into two groups of six rats each and fasted for 12 h before the experiment. The whole blood samples were collected in heparinized tubes through the suborbital vein of rat at 0.25, 0.5, 0.75, 1, 1.5, 2, 3, 4, 6, 8, 12, 24, 36, and 48 h after gavage administration of drugs. The blood samples were immediately centrifuged at 3,500 rpm for 10 min to obtain plasma. Plasma was stored at −20°C until analysis. […]

Details of data set [3]: method as in PMID 29099639, PMID 29790819. The settings on record: coadministered with PUR, compared with the control group; cited from earlier work.
The mark [4] stands for this setting: male, Wistar, PUR in rat plasma, oral PUR 100 mg/kg, n = 6, mean ± SD.

As to `O=c1c(-c2ccc(O)cc2)coc2c([C@@H]3O[C@H](CO)[C@@H](O)[C@H](O)[C@H]3O)c(O)ccc12` [PUR, daidzein-8-C-glucoside], in the data set with MRP2, the “increase of intestinal absorption of PUR” value is reported as 2.3 times. In addition, in data set [1] (8.0 ng/mL), the “Stability (RE, %) Postextraction” value is −7.7%; the “Stability (RE, %) 23°C–28°C/24 h” value is recorded as 11.5%; the “Stability (RE, %) −20°C/30 day” value was found to be 11.4%; the “Stability (RE, %) Freeze-thaw (3 cycles)” value worked out at 9.3%. Further, in data set [1] (80.0 ng/mL), the “Stability (RE, %) Postextraction” value is −6.3%; the “Stability (RE, %) 23°C–28°C/24 h” value came out at 6.5%; the “Stability (RE, %) −20°C/30 day” value came out at 6.2%; the “Stability (RE, %) Freeze-thaw (3 cycles)” value came out at 5.6%. Besides, in data set [1] (720.0 ng/mL), the “Stability (RE, %) Postextraction” value was 5.9%; the “Stability (RE, %) 23°C–28°C/24 h” value came out at 8.7%; the “Stability (RE, %) −20°C/30 day” value is recorded as −4.7%; the “Stability (RE, %) Freeze-thaw (3 cycles)” value was −5.1%. In data set [1] (three freeze/thaw cycles, −20°C for 30 days, 23°C to 28°C for 24 h, postextraction 4°C for 24 h, stable if deviation within ± 15%), the “stability in rat plasma under four tested conditions” value is “stable”. Also, the “increase of intestinal absorption of PUR” value with P-gp is 2.7 times. Besides, in data set [2] (setting [4]), the AUC(0-inf) worked out at 0.22 ± 0.0644 µg·h/mL, the AUC(0-t) was 0.213 ± 0.0619 µg·h/mL, the Tmax worked out at 1.46 ± 1.08 h and the half-life is 1.6 ± 0.38 h. Besides, the CL/F in data set [2] (male, Wistar, PUR in rat plasma, oral PUR 100 mg/kg, n = 6, mean ± SD, read-out: CLz/F (converted)) was 509 L/h/kg. The MRT last in data set [2] (male, Wistar, PUR in rat plasma, oral PUR 100 mg/kg, n = 6, mean ± SD, read-out: MRT 0-t) is 2.22 ± 0.46 h. Also, the Vd/F in data set [2] (male, Wistar, PUR in rat plasma, oral PUR 100 mg/kg, n = 6, mean ± SD, read-out: Vz/F) worked out at 1200 ± 403 L/kg. Moreover, in data set [2] (male, Wistar, rat plasma, oral puerarin 100 mg/kg, abstract, read-out: maximum concentration (Cmax) of puerarin), the Cmax came to 0.102 ± 0.0418 µg/mL. Besides, the “shape of plasma concentration-time curve of PUR” value in data set [2] (oral pure PUR 100 mg/kg, rats) is “no double-peak phenomenon”.
Regarding `CC(C)(O)[C@@H]1CC[C@](C)([C@H]2[C@@H](O)C[C@@]3(C)[C@@H]4C[C@H](O[C@@H]5O[C@H](CO)[C@@H](O)[C@H](O)[C@H]5O)[C@H]5C(C)(C)[C@@H](O[C@@H]6OC[C@@H](O)[C@H](O)[C@H]6O)CC[C@@]56C[C@@]46CC[C@]23C)O1` [astragaloside IV], the “effect on Tmax, Cmax, and AUC0-t of PUR” value in data set [3] is recorded as “significantly reduce”.
Take `CC1(C)[C@@H](O[C@H]2O[C@H](C(=O)O)[C@@H](O)[C@H](O)[C@H]2O[C@@H]2O[C@H](C(=O)O)[C@@H](O)[C@H](O)[C@H]2O)CC[C@]2(C)[C@H]3C(=O)C=C4[C@@H]5C[C@@](C)(C(=O)O)CC[C@]5(C)CC[C@@]4(C)[C@]3(C)CC[C@@H]12` [glycyrrhizin]: the “effect on Tmax, Cmax, and AUC0-t of PUR” value in data set [3] is listed as “significantly reduce”.
